Results on two compounds are retold here after patent publication US20190151346A1, “COMBINATIONS THERAPIES FOR THE TREATMENT OF CANCER” (INSERM (INSTITUTE NATIONAL DE LA SANTÉ ET DE LA RECHERCHE …, priority 2016, published 2019).

What all share (assay type): cell-based
One test relates to Src. The test can be described thus: Tyrosine phosphorylation by Western blotting: Src phosphorylation in TNBC cell lines. Here is the method: (§1) BT20 and MDA-MB468 triple negative (HER2-, ER-, PR-) were obtained from American Type Culture Collection (ATCC N°HTB19, and ATCC N°HTB132, respectively). The LumB, and Her2-, ER-, PR-negative IJG-1731 cell line was previously established at the laboratory as described (Mombelli et al. Sci Rep. 2015 Jul. 8; 5:11874.) BT20 and IJG-1731 cells were grown in complete RPMI-1640 media with L-glutamine, supplemented with 10% fetal calf serum (FCS) and penicillin—streptomycin solution (100 μg/ml each) (Life technology, Saint-Aubain, France). MDA-MB468 cells were grown in a complete DMEM-F12 media with glutamine, 10% FCS and penicillin—streptomycin. All cells were maintained in a humidified 5% CO2 atmosphere at 37° C. All experiments were conducted with cells at confluency and starved for an overnight.
(§2) Cells (3×10^5) were seeded in 6-well plates in complete medium for 24 hours then starved for another overnight. Cells were then stimulated with IL-17E (10 ng/ml), EGF (10 ng/ml), or a combination of both for 30 min in serum-free medium. Cells were then lysed in 1% Triton X100 buffer and left on ice for 1 hours. Protein samples were then subjected to 8% SDS-PAGE. Western blotting using specific antibodies assessed then the phosphorylation of the various kinases.
On the technique in general: Immunoblotting shows a protein as a band on a membrane.

In test [1] the test system is EGFR. Description: Tyrosine phosphorylation by Western blotting: EGFR phosphorylation in TNBC cell lines. Conditions: for IL-17E- and EGF-induced phosphorylation of Y1086 EGFR: AZM475271 10 μM pre-treatment, FIG. 2A. On the procedure: BT20 and MDA-MB468 triple negative (HER2-, ER-, PR-) were obtained from American Type Culture Collection (ATCC N°HTB19, and ATCC N°HTB132, respectively). […] MDA-MB468 cells were grown in a complete DMEM-F12 media with glutamine, 10% FCS and penicillin—streptomycin. All cells were maintained in a humidified 5% CO2 atmosphere at 37° C. All experiments were conducted with cells at confluency and starved for an overnight.
as §2

The test system of the next test is STAT3. The test can be described thus: Cellular fractionation and Western blotting: STAT3 and pSTAT3 translocation to the nucleus. Conditions: MDA-MB468 fractions. On the procedure: as §1
Cells (3×10^5) were seeded in 6-well plates in complete medium for 24 hours then starved for another overnight. Cells were stimulated for 2 hours at 37° C. with IL-17E (10 ng/ml), EGF (long/ml), or a combination of both as indicated. Cells were then washed with PBS and lysed in a lysis buffer (HEPES 10 mM, MgCl2 15 mM KCl 10 mM, DTT 0.5 mM, PMSF 0.2 mM, 1 mM Na3VO4, 10 mM NaF, 0.5% Nonidet P-40). […] Protein concentrations were determined by using Bradford method. […]

In test [2] the test system is EGFR. Description: Immunofluorescence microscopy: localization of EGFR. The following applies: MDA-MB468; 10 ng/ml, 2 hours; FIG. 4A, FIG. 7. On the procedure:
as §1
Cells (4.10^3) were grown on Lab-Tek chambers slide in their respective complete culture medium for 24 hours then starved for an overnight. Cells were then stimulated with IL-17E (long/ml), EGF (10 ng/ml) or a combination of both for 2 hours at 37° C., washed, and fixed with 4% paraformaldehyde (PFA)-PBS solution at 4° C. […] Slides were mounted with mounting medium containing Dapi then visualized with a Leica DMRB fluorescence microscope and images analysis was performed with the Archimed Software (Microvision).

As for `COc1ccc(Cl)c(Nc2ncnc3cc(OCC4CCN(C)CC4)c(OC)cc23)c1` [AZM475271], in the test on Src (TNBC cell lines pre-treated with AZM475271 (10 μM), then stimulated with IL-17E or EGF (10 ng/ml), FIG. 2A), the “IL-17E- and EGF-induced Src phosphorylation” value is on record as “inhibited”. The “IL-17E- and EGF-induced phosphorylation of Y1086 EGFR” value with EGFR [1] (IJG-1731 and BT20 cell lines) was “abolished”; with EGFR [1] (MDA-MB468), “to a lesser extent”. Also, the “EGFR activation downstream IL-17E or IL-17B” value with EGFR [1] (TNBC cells, Src specific inhibitor, discussion, FIG. 6) is on record as “inhibition”.
“EGF: epidermal growth factor, EGFR ligand used as stimulus (NSDSECPLSHDGYCLHDGVCMYIEALDKYACNCVVGYIGERCQYRDLKWWELR; Epidermal growth factor; UniProt P01133 971-1023, looked up)”: the “phosphorylation of STAT3α and β” value in the test with STAT3 was “induced the phosphorylation”. Further, the “phosphorylation of Src at Y416 at suboptimal concentrations” value in the test with Src (MDA-MB468, IL-17E 1 ng/ml alone or EGF 0.1-1 ng/ml alone, FIG. 3) is on record as “failed to induce any significant phosphorylation”. Also, in the test on EGFR [2], the “translocation of EGFR (immunofluorescence)” value is recorded as “induced strong translocation of EGFR from the membrane to the nucleus”.
